Entries after “also recorded” stand apart in the source; their conditions may differ.
How the values were obtained:
[1] = system: Splenocytes isolated from 6-8 weeks old C57BL/6 mice; assay: Mouse splenocyte in vitro stimulation, murine IL-6 by ELISA; assay type: cell-based; conditions: C57BL/6 splenocytes, 33 μM, 18 hours
Procedure: Splenocytes isolated from 6-8 weeks old C57BL/6 mice and human adult PBMCs were stimulated for 18 hours with compound 037 and its analogs at 33 μM. Production of murine IL-6 and human TNF was assessed in cell-free supernatants by ELISA. Results are presented as scatter plot in which each dot represents median production of human TNF (N=3-5) or murine IL-6 (N=6) for each compound.
Spleens were harvested from 6-8 weeks old C57BL/6 mice. For splenocyte isolation, spleens were mashed through a […] strainer, washed with PBS, and erythrocytes were lysed with 2 min of incubation in ammonium chloride-based lysis buffer (BD Biosciences). Cells were then counted and plated 2×10^6 per well (round bottom 96-well plate) in 200 μl of complete culture medium (RPMI 1640 plus 10% heat-inactivated fetal bovine serum [FBS, GE Healthcare HyClone], 50 μM 2-mercaptoethanol, 2 mM 1-glutamine, 100 U/ml penicillin/streptomycin [Gibco ThermoFisher Scientific]) with 0.66 μl of DMSO-dissolved compounds (10 mM) in order to achieve a final compound concentration of 33 μM. After 18 hours of incubation (37° C., 5% CO2), plates were spun down (500×g, room temperature, 5 minutes) and supernatants were harvested for further analysis.

[2] = system: human adult PBMCs; assay: TNF production by ELISA after stimulation of human adult PBMCs; assay type: cell-based; conditions: 33 μM, 18 hours
Procedure: Table 1. Activity of Exemplary Imidazopyrimidine Compounds on Stimulating TNF Production in PBMCs as Compared to Compound R848 Table 1 provides the activity of exemplary compounds on stimulating TNF production in PBMCs as compared to the benchmark compound R848. Specifically, TNF production was measured by ELISA after stimulation of adult PBMCs with compound 037 analog family or the compound R848 at 33 μM for 18 hours. Analogs are ranked top to bottom by median percentage TNF production (TNF %) as compared to R848 (N=3-5). The compounds have been classified in the following categories according to TNF %: high activity—class A: TNF %>15%; medium activity—class B: 1%<TNF %≤15%; low activity—class C: TNF %≤1%.
ELISAs and Multiplex-Analyte Assays. Supernatants derived from human PBMCs and DC stimulations were assayed by ELISA for TNF (ThermoFisher Scientific; Waltham, Mass., USA). Cytokine and chemokine expression profiles (e.g., IFNγ, IL-9, IL-10, IL-12 (p70), IL-13, IL-1β, IL-23, IL-27, IL-28A, IL-33, IL-6, MIP-3α/CCL20, and TNF) in cell culture supernatants were measured using a customized Milliplex® Human Th17 Magnetic Bead Panel according to the manufacturer's instructions (Millipore, Chicago, Ill., USA). Assays were read and analyzed on the Luminex® 100/200™ System and xPOTENT® software (Luminex, Austin, Tex.). A minimum threshold was set at the minimum detectable concentration for each individual assay, defined as three standard deviations above the mean background.
PBMCs were isolated from blood using a Ficoll density gradient. PBMCs either used fresh or were stored at 5×10^7 cells per vial in 1 mL RPMI containing 20% autologous plasma and 10% DMSO at −80° C. until use. Stimulation plates were prepared by transferring 0.66 μl of DMSO-dissolved compounds (10 mM) to each well of a round bottom 96-well plate. PBMCs isolated from human adult donors were resuspended at a concentration of 10^5 cells/200 μl of RPMI supplemented with 10% of platelet-poor plasma. 200 μl of the cell suspension were transferred to each well resulting in a final compound concentration of […]. After about 18 hours of incubation (37° C., 5% CO2), plates were spun down (500×g, room temperature, 5 minutes) and supernatants were harvested for further analysis.

Question: With Cc1cnc2nc(-c3ccc(C)c(NC(=O)c4ccccc4C(F)(F)F)c3)cn2c1 [FRF-02-144-3] as the compound, how does the “Production of murine IL-6 by splenocytes (in words)” value [1] read?
Answer: activates both human PBMCs and mouse splenocytes; also recorded: active on both human and murine cells

Question: What about the “TNF (Median)” value ([2]; adult PBMCs, ELISA, median, N=3-5, unit not given (FIG. 6B/7B legends: TNF concentration in ng/ml)) of the same compound?
Answer: 5.397

Question: What about the Activity class ([2]; class according to TNF % as compared to R848, adult PBMCs) of the same compound?
Answer: A (high activity—class A: TNF %>15%)

Question: And the “Production of human TNF by PBMCs (in words)” value ([2]; human adult PBMCs, ELISA)?
Answer: activates both human PBMCs and mouse splenocytes; also recorded: active on both human and murine cells

Question: And the “TNF % (Median)” value ([2]; median percentage TNF production as compared to R848, adult PBMCs, N=3-5)?
Answer: 99.81%

— patent publication US11673891B2, “Imidazopyrimidine compounds and uses thereof” (Dana-Farber Cancer Institute, Inc., priority 2017, dated 2023)
